Experimental data from US20180344725A1, “QUINOLONE CHALCONE COMPOUNDS AND USES THEREOF” (priority 2015, published 2018).

Key:
[1] = tested on: RPMI-8226BTZR; assay: Killing of bortezomib-resistant multiple myeloma cells; assay type: cell-based
Description: The RPMI-8226BTZR over-expresses β1, β2 and β5 peptides of the 20S subunit. […] However, RPMI-8226BTZR is sensitive to CTR-20, CTR-21 and CTR-32 (FIG. 36).

[2] = tested on: KB-C-2; assay: SRB-based cytotoxicity assay, single and combination with paclitaxel; assay type: cell-based, human; details: for Resistance (fold): KB-C-2 versus KB-C-1; for IC50: Homo sapiens, KB-C2, KB-C-2, multidrug-resistant
Procedure: 1845B5 and MCF-10A non-cancer breast cell lines were cultured in DME/F12 medium supplemented with 10% fetal bovine serum, antibiotics and growth factors. […] The human small cell lung carcinoma H69 cell line and its multidrug-resistant MRP1-overexpressing isogenic H69AR cell line were purchased from ATCC. […] H69 cells grow as large multi-cell aggregates, making it difficult to accurately count cell numbers. […] The IL-6 dependent bortezomib-resistant ANBL6-BR cell line was further supplemented with 1 ng/ml of IL-6. The MCF10AT1 and MCF10CA1a cell lines are isogenic to the MCF10A cell line, and obtained from Dr. Valerie Weaver at the Center for Bioengineering and Tissue Regeneration, UCSF, CA, USA. […] The drug-resistant cells were cultured in the absence of drug for at least one passage before carrying out experiments. All cells were maintained in a humidified incubator at 37° C. […] Cell line authentication was performed using short tandem repeat (STR) profiling. […] Some wells were treated with 100 μl of 10% trichloroacetic acid (TCA) as a negative control and sham (medium with dimethyl sulfoxide; DMSO) treated cells were used as a positive control. […] TCA was removed and cells were washed with cold tap water, and plate was air-dried, followed by addition of 50 μl of 0.4% SRB staining solution to each well. After 30 minutes incubation, SRB staining solution was removed. Cells were washed with 1% acetic acid solution, and then washed with tap water to remove unbound staining solution, followed by air-drying. 200 μl of 10 mM (pH10.5) trizma base buffer was added to each well to solubilise macromolecules. […] Cell growth (inhibition) was calculated by the following formula: % cells proliferation=[(AT-CT)/(ST-CT)]×100 wherein AT=absorbance of treated cells, CT=absorbance of negative control cells, and ST=absorbance of sham treated cells. […] CI values were determined from four independent experiments.

[3] = tested on: MDA-MB-231 human metastatic breast cancer cells; assay: Anti-tumor activity in xenograft mice; assay type: in vivo; details: Tax 10 mg/kg I.V. once/week, CTR 30 mg/kg I.P. every 3 days, or Tax 5 + CTR 15 mg/kg once/week
Procedure: Five-week old female CD-1 and ATH490 (strain code 490) athymic nude mice were purchased from Charles River (Quebec, Canada). The MDA-MB-231 human metastatic breast cancer cells were obtained from the American Tissue Culture Collection (ATCC, Manassas, Va., USA). Cells were maintained under humidified conditions at 37° C. and 5% CO2 in DMEM high glucose medium (ATCC) supplemented with 10% fetal bovine serum and antibiotics.
For paclitaxel treatments, 40 mg/ml stock solution of paclitaxel (Sigma, MO) was prepared in DMSO. Just before administration to mice, the paclitaxel stock solution was diluted ten-fold in a buffer containing 10% DMSO, 12.5% Cremophor, 12.5% ethanol, and 65% saline-based diluent (0.9% sodium chloride, 5% polyethylene glycol, and 0.5% tween-80) which is defined as vehicle (Huang et al., 2006). Alanine transaminase (ALT, SUP6001-c)/Aspartate transaminase (AST, SUP6002-c) color endpoint assay kits were purchased from ID Labs Biotechnology (London, Ontario, Canada). Elevation of ALT and AST levels in serum samples was used as an indicator of liver damage/injury.
To determine the anti-tumor activity of CTR compounds in animals, a xenograft model of human breast cancer cells in athymic nude mice was established. Exponentially growing MDA-MB-231 metastatic breast cancer cells were harvested and counted for inoculation into mice. Each mouse was subcutaneously injected at the flank with 10×10^6 cells in 0.2 ml ice cold 1×PBS. When tumor size reached 4-5 mm in diameter (n=4-5 per group), mice were randomly assigned into several groups as described herein.
Animals were monitored for food and water consumption every day, and their body weights and tumor volumes were measured twice per week. Tumor volumes were measured with a digital caliper and were determined by using the following formula: ½ length×width^2. Blood samples were collected via cardiac puncture and processed further for ALT and AST measurements. The animals were then immediately euthanized by carbon dioxide. Tumors and vital organs (spleen, kidney, liver and lung) were collected and fixed in 10% buffered formalin at 4° C. overnight before being processed for paraffin embedding. The paraffin-embedded blocks were then cut into 4-5 μm thick sections. Each section of tumors and organs was stained with hematoxylin and eosin (H&E).

[4] = Liver toxicity by AST and ALT; assay type: in vivo, mice; details: serum
Procedure: For paclitaxel treatments, 40 mg/ml stock solution of paclitaxel (Sigma, MO) was prepared in DMSO. […] Alanine transaminase (ALT, SUP6001-c)/Aspartate transaminase (AST, SUP6002-c) color endpoint assay kits were purchased from ID Labs Biotechnology (London, Ontario, Canada). Elevation of ALT and AST levels in serum samples was used as an indicator of liver damage/injury. Animals were monitored for food and water consumption every day, and their body weights and tumor volumes were measured twice per week. […] Blood samples were collected via cardiac puncture and processed further for ALT and AST measurements. The animals were then immediately euthanized by carbon dioxide. […] The paraffin-embedded blocks were then cut into 4-5 μm thick sections. Each section of tumors and organs was stained with hematoxylin and eosin (H&E). Changes in body weight, hemoglobin (Hb) and the amount and ratio of alanine transaminase (ALT)/aspartate transaminase (AST) were used to measure toxic effects. In addition, vital organs (liver, spleen, kidney and lung) were analyzed by […] after they were harvested, fixed, processed, paraffin-embedded, sectioned, and stained as described above.

[5] = single agent at 0.5IC50 (CTR-17 0.325 μM; CTR-20 0.125 μM; paclitaxel 11.5 nM)
[6] = single agent at IC50 (CTR-17 0.65 μM; CTR-20 0.25 μM; paclitaxel 23 nM)
[7] = Paclitaxel 10 mg/kg, CTR 30 mg/kg, or Paclitaxel (5) + CTR (15)

Row | SMILES | sensitivity of RPMI-8226BTZR [1] | Resistance (fold) [2] [fold] | Cell survival rates ([2]; single agent at 0.125IC50 (paclitaxel 2.875 nM)) | Cell survival rates ([2]; single agent at 0.25IC50 (paclitaxel 5.75 nM)) | Cell survival rates [2, 5] | Cell survival rates [2, 6] | tumor size (volume) ([3]; Day 0) [mm^3] | tumor size (volume) ([3]; Day 6) [mm^3] | tumor size (volume) ([3]; Day 14) [mm^3] | tumor size (volume) ([3]; Day 17) [mm^3] | tumor size (volume) ([3]; Day 20) [mm^3] | tumor size (volume) ([3]; Day 24) [mm^3] | tumor size (volume) ([3]; Day 27) [mm^3] | tumor size (volume) ([3]; Day 30) [mm^3] | ALT (IU/L) [4, 7] [IU/L] | AST (IU/L) [4, 7] [IU/L] | IC50 [2] [nM] | ALT (IU/L) ([4]; CTR 20 mg/kg) | AST (IU/L) ([4]; CTR 20 mg/kg)
1 | CCOc1ccccc1C(=O)/C=C/c1cc2ccccc2[nH]c1=O [CTR-32, (E)-3-(3-(2-ethoxyphenyl)-3-oxoprop-1-enyl)quinolin-2(1H)-one] | sensitive | – | – | – | – | – | – | – | – | – | – | – | – | – | – | – | – | – | –
2 | CC(=O)O[C@H]1C(=O)[C@@]2(C)[C@H]([C@H](OC(=O)c3ccccc3)[C@]3(O)C[C@H](OC(=O)[C@H](O)[C@@H](NC(=O)c4ccccc4)c4ccccc4)C(C)=C1C3(C)C)[C@]1(OC(C)=O)CO[C@@H]1C[C@@H]2O [Paclitaxel, reference compound] | – | 11.48 | 99.6 ± 0.3 | 89.5 ± 6.0 | 75.9 ± 7.7 | 48.4 ± 5.8 | 91.84 | 90.11 | 94.66 | 92.33 | 81.66 | 95.61 | 139.41 | 170.36 | 52.02 ± 2.59 | 111.14 ± 13.42 | – | – | –
3 | COc1ccccc1C(=O)/C=C/c1cc2ccccc2[nH]c1=O [CTR-17, (E)-3-(3-(2-Methoxyphenyl)-3-oxoprop-1-enyl)quinolin-2(1H)-one] | – | 1.71 | – | – | 80.0 ± 11.4 | 53.2 ± 12.6 | 86.71 | 63.99 | 90.07 | 128.36 | 134.76 | 160.86 | 189.45 | 209.84 | 64.67 ± 5.26 | 114.13 ± 6.36 | 650 ± 160 | 63.59 ± 9.73 | 101.00 ± 10.19
4 | COc1ccc2[nH]c(=O)c(/C=C/C(=O)c3ccccc3OC)cc2c1 [CTR-20, (E)-6-Methoxy-3-(3-(2-methoxyphenyl)-3-oxoprop-1-enyl) quinolin-2(1H)-one] | sensitive | 2.50 | – | – | 76.0 ± 9.6 | 56.8 ± 8.4 | 92.51 | 69.89 | 84.64 | 97.11 | 97.22 | 106.26 | 124.88 | 140.63 | 50.50 ± 9.96 | 118.22 ± 17.00 | 250 ± 30 | 56.77 ± 5.34 | 119.19 ± 4.03
5 | COc1ccccc1C(=O)/C=C/c1cc2cccc(OC)c2[nH]c1=O [CTR-21, (E)-8-methoxy-3-(3-(2-methoxyphenyl)-3-oxoprop-1-enyl) quinolin-2(1H)-one] | sensitive | – | – | – | – | – | – | – | – | – | – | – | – | – | – | – | – | – | –
